Values quoted from earlier work in patent US20240197726A1, “NOVEL TETRAHYDROISOQUINOLINE ALKALOID COMPOUND CONTAINING MACROCYCLE” (THE UNIVERSITY OF TOKYO, priority 2021, published 2024).
Read-outs that look alike come from different tables or passages of the source.

Columns and labels:
Details in all cases: cited from earlier work
[1] = system: HCT-116 colorectal cancer cells
[2] = system: HT-29 colorectal cancer cells
[3] = system: MCF-7 breast cancer cells
A549 lung cancer cells = system: A549 lung cancer cells
[4] = system: MDA-MB-231 breast cancer cells
[5] = system: NCI-H23 lung cancer cells
[6] = system: NCI-H460 lung cancer cells

| Structure (SMILES) | GI50 ([1]; HCT-116 colorectal cancer cells, comparative value based on the literature, read-out: antitumor activity GI50 value: 50% growth inhibitory concentration) | GI50 ([2]; HT-29 colorectal cancer cells, comparative value based on the literature, read-out: antitumor activity GI50 value: 50% growth inhibitory concentration) | GI50 ([3]; MCF-7 breast cancer cells, comparative value based on the literature, read-out: antitumor activity GI50 value: 50% growth inhibitory concentration) | GI50 (A549 lung cancer cells; A549 lung cancer cells, comparative value based on the literature, read-out: antitumor activity GI50 value: 50% growth inhibitory concentration) | GI50 ([4]; MDA-MB-231 breast cancer cells, comparative value based on the literature, read-out: antitumor activity GI50 value: 50% growth inhibitory concentration) | GI50 ([5]; NCl-H23 lung cancer cells, comparative value based on the literature, read-out: antitumor activity GI50 value: 50% growth inhibitory concentration) | GI50 ([6]; NCl--H460 lung cancer cells, comparative value based on the literature, read-out: antitumor activity GI50 value: 50% growth inhibitory concentration) | GI50 ([1]; HCT-116, reference values from literature (Leal et al. Br. J Pharmacol, 2010), read-out: GI50 value: 50% growth inhibitory concentration) | GI50 ([2]; HT-29, reference values from literature (Leal et al. Br. J Pharmacol, 2010), read-out: GI50 value: 50% growth inhibitory concentration) | GI50 ([3]; MCF-7, reference values from literature (Leal et al. Br. J Pharmacol, 2010), read-out: GI50 value: 50% growth inhibitory concentration) | GI50 (A549 lung cancer cells; A549, reference values from literature (Leal et al. Br. J Pharmacol, 2010), read-out: GI50 value: 50% growth inhibitory concentration) | GI50 ([4]; MDA-MB-231, reference values from literature (Leal et al. Br. J Pharmacol, 2010), read-out: GI50 value: 50% growth inhibitory concentration) | GI50 ([5]; NCI-H23, reference values from literature (Leal et al. Br. J Pharmacol, 2010), read-out: GI50 value: 50% growth inhibitory concentration) | GI50 ([6]; NCI-H460, reference values from literature (Leal et al. Br. J Pharmacol, 2010), read-out: GI50 value: 50% growth inhibitory concentration) |
| --- | --- | --- | --- | --- | --- | --- | --- | --- | --- | --- | --- | --- | --- | --- |
| COc1c(C)cc2c(c1C)[C@H]1N(C)[C@@](C)(C2)C(C)N2C1(C)[C@@H]1CCC3(CCCC4=C3Cc3ccc(C)cc34)C(=O)OC[C@@]2(C)c2c3c(c(C)c(C)c21)OCO3 (some centres unmarked) [drawing 159] | 6.4 nM | 2.4 nM | 1.7 nM | 1.3 nM | 3.4 nM | 5.3 nM | 1.5 nM | – | – | – | – | – | – | – |
| COc1ccc2[nH]c3c(c2c1)CCN[C@]31CS[C@@H]2c3c(OC(C)=O)c(C)c4c(c3[C@H](COC1=O)N1[C@@H]2[C@H]2c3c(cc(C)c(OC)c3O)C[C@@H]([C@@H]1O)N2C)OCO4 [lurbinectedin, reference compound] | – | – | – | – | – | – | – | 6.4 nM | 2.4 nM | 1.7 nM | 1.3 nM | 3.4 nM | 5.3 nM | 1.5 nM |
